The numbers were not newly measured in patent publication US20100172990A1, “BIOCOMPATIBLE MICROGELS AND APPLICATIONS THEREOF” (UNIVERSIDAD DEL PAIS VASCO, priority 2007, published 2010), which cites them from elsewhere.

Molecules are shown by their SMILES.

The conditions of this data set: at 55° C.

With `C=CN1CCCCCC1=O` [VCL, N-vinylcaprolactam], the solubility in water entry is listed as “approximately 88 g/L”.
